Assay results: PubChem BioAssay AID1117361 (Southern Research Institute, 2015)

Target: Protein Tat (Human immunodeficiency virus type 1 group M subtype B (isolate HXB2)) (UniProt P04608)
Test: inhibitors of Tat binding to TAR RNA, dose response, counter-screen for Vif-APOBEC3G degradation inhibitor project, biochemical, fluorescence polarization, FAM-labeled TAR RNA (AID 1117361)

Chain of Protein Tat (Human immunodeficiency virus type 1 group M subtype B (isolate HXB2)) (P04608 whole entry, looked up): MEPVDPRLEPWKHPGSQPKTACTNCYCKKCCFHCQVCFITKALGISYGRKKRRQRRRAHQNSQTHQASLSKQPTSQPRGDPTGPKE

**Q.** For `NS(=O)(=O)c1ccc(N/N=C/c2ccc(O)c(O)c2O)c([N+](=O)[O-])c1`, which IC50 is on record?
**A.** 7.44 µM

**Q.** How did the IC50 turn out when `CCCOc1ccc(Cc2nn3c(=O)/c(=C/c4ccco4)sc3nc2=O)cc1` was run?
**A.** 2.68 µM

**Q.** How did the IC50 turn out when `O=C(CCCN1C(=O)/C(=C\c2ccco2)SC1=S)Nc1cccc2ccccc12` was run?
**A.** 7.92 µM

**Q.** How did the IC50 turn out when `CCn1c(C)nc2cc(C(=O)N/N=C/c3ccc(O)c(O)c3O)ccc21` was run?
**A.** 15.3 µM

**Q.** `C=CCOC(=O)C1=C(C)NC(SCC(=O)Nc2ccccc2)=C(C#N)C1c1ccco1` (configuration not stated) was tested. Which IC50 did it give?
**A.** 57.5 µM

**Q.** With `Cn1cccc1/C=C1/C(=O)NC(=O)N(Cc2ccccc2)C1=O` as the molecule, how does the IC50 read?
**A.** 67 µM

**Q.** For `FC(F)(F)c1cc(-c2ccco2)nc(NCc2ccco2)n1`, which IC50 is on record?
**A.** 28.5 µM

**Q.** How did the IC50 turn out when `O=C(NC1CCC(C(=O)O)CC1)OCc1ccccc1` (configuration not stated) was run?
**A.** 79.8 µM

**Q.** With `O=C1C=C(N2CC2)c2ccccc2C1=O` as the molecule, how does the IC50 read?
**A.** 80.9 µM

**Q.** `Cc1cc(C)cc(NC(=O)CSc2nc3c(c(=O)n2C)SC(C)C3)c1` (configuration not stated) was tested. Which IC50 did it give?
**A.** 56.9 µM

**Q.** How did the IC50 turn out when `CC1S/C(=N/N=C/c2ccco2)NC1=O` (configuration not stated) was run?
**A.** 70.3 µM

**Q.** For `CSc1nc(NCCOCCO)c2sc3nc(-c4ccco4)c4c(c3c2n1)CCC4`, which IC50 is on record?
**A.** 9.42 µM

**Q.** How did the IC50 turn out when `CC1=CN2C(=N)/C(=C/c3ccc([N+](=O)[O-])o3)C(=O)N=C2S1` was run?
**A.** 12.2 µM

**Q.** For `CCc1cc(=O)n2[nH]c(C)c(-c3ccccc3OC)c2n1`, which IC50 is on record?
**A.** 12.7 µM

**Q.** How did the IC50 turn out when `O=C(O)CC(C(=O)O)N1C(=O)/C(=C/c2ccc(-c3nc4ccccc4s3)o2)SC1=S` (configuration not stated) was run?
**A.** 11.3 µM

**Q.** `Cc1ccc(NC(=O)CN(C)C(=O)c2cccc(-n3cccc3)c2)cc1` was tested. Which IC50 did it give?
**A.** 38 µM

**Q.** Which IC50 does the source give for `Cc1ccc2c(c1C)NC(C(=O)O)C1CC=CC21` (configuration not stated) here?
**A.** 34.7 µM

**Q.** How did the IC50 turn out when `O=C(OC1CCCCC1)c1ccc2c(c1)C1C=CCC1C(C(=O)O)N2` (configuration not stated) was run?
**A.** 2.26 µM

**Q.** `Cc1ccc(C)n1/N=C1/NC(=O)CS1` was tested. Which IC50 did it give?
**A.** 0.882 µM

**Q.** For `COc1cc(C2C(C#N)=C(N)N(c3cccnc3)C3=C2C(=O)CCC3)ccc1O` (configuration not stated), which IC50 is on record?
**A.** 43.4 µM

**Q.** How did the IC50 turn out when `O=S(=O)(O)c1cc(O)c2cc(Nc3ccccc3)ccc2c1` was run?
**A.** 20.5 µM

**Q.** `Cc1n[nH]c(=S)n(NC(=O)/C=C/C(=O)Nn2c(=S)[nH]nc(C)c2=O)c1=O` was tested. Which IC50 did it give?
**A.** 18.2 µM

**Q.** How did the IC50 turn out when `O=c1[nH]c(=S)[nH]c2c1C(c1ccc(Br)cc1)c1c([nH]c(=S)[nH]c1=O)O2` was run?
**A.** 2.72 µM

**Q.** `O=C1/C(=C\c2ccco2)SC(=S)N1c1ccccc1` was tested. Which IC50 did it give?
**A.** 9.64 µM

**Q.** How did the IC50 turn out when `NC(=O)Cn1c(=O)n(Cc2ccco2)c(=O)c2c3c(sc21)CCCCC3` was run?
**A.** 15.5 µM

**Q.** `O=C(Nc1ccc2nc(-c3ccco3)c(-c3ccco3)nc2c1)N1CCCCCC1` was tested. Which IC50 did it give?
**A.** 3.56 µM

**Q.** With `COc1cccc(N2C(=O)NC(=O)/C(=C/c3ccc([N+](=O)[O-])s3)C2=O)c1` as the molecule, how does the IC50 read?
**A.** 34.3 µM

**Q.** With `CNc1ccc(Br)cc(C(=O)/C=C/c2cccc(OC)c2OC)c1=O` as the molecule, how does the IC50 read?
**A.** 8 µM

**Q.** Which IC50 does the source give for `Brc1c(CSc2nnc(-c3ccco3)o2)nc2ccccn12` here?
**A.** 23.9 µM

**Q.** For `COc1ccc(NC(=O)/C(C#N)=C\c2ccc(Br)o2)cc1`, which IC50 is on record?
**A.** 60.8 µM

**Q.** Which IC50 does the source give for `CCCCn1c(=NC(=O)c2cccnc2)c(C#N)cc2c(=O)n3cccc(C)c3nc21` here?
**A.** 4.74 µM

**Q.** For `O=C(C1CCCO1)N1CCC2(CC1)OCCO2` (configuration not stated), which IC50 is on record?
**A.** 5.55 µM

**Q.** `CCC1C/C(=C/c2ccco2)C(=O)/C(=C/c2ccco2)C1` (configuration not stated) was tested. Which IC50 did it give?
**A.** 12.6 µM

**Q.** For `Cc1ccc(C)c2[nH]c(=O)c(CN(Cc3ccc4c(c3)OCO4)Cc3nnnn3Cc3ccco3)cc12`, which IC50 is on record?
**A.** 39.6 µM

**Q.** How did the IC50 turn out when `O=S(=O)(O)c1cc(O)c(N=Nc2ccc(O)cc2O)c2ccccc12` was run?
**A.** 51.3 µM

**Q.** `c1coc(-c2nc(-c3ccco3)c(-c3ccco3)nc2-c2ccco2)c1` was tested. Which IC50 did it give?
**A.** 2.19 µM

**Q.** Which IC50 does the source give for `CCOC(=O)c1c(C)oc2c1c(C=NCc1ccccn1)c(O)c1ccccc12` here?
**A.** 4.15 µM

**Q.** For `CCNC(=O)COC(=O)c1cc(-c2ccco2)nc2ccccc12`, which IC50 is on record?
**A.** 8.09 µM

**Q.** How did the IC50 turn out when `O=C(N/N=C/c1cn(Cc2cccc(F)c2)c2ccccc12)c1cc(O)cc(O)c1` was run?
**A.** 15 µM

**Q.** With `CC(=C\c1ccco1)/C=C1/SC(=S)N(CC(=O)O)C1=O` as the molecule, how does the IC50 read?
**A.** 8.8 µM

**Q.** With `COc1cc2[nH]c(Cl)c([N+](=O)[O-])c2cc1OC` as the molecule, how does the IC50 read?
**A.** 24.3 µM

**Q.** With `C=CCSC1=N/C(=C\C=C\c2ccco2)C(=O)S1` as the molecule, how does the IC50 read?
**A.** 1.89 µM

**Q.** How did the IC50 turn out when `COc1ccc(/C=N/NC(=O)c2cc(O)c(O)c(O)c2)cc1Cn1cc([N+](=O)[O-])cn1` was run?
**A.** 46.7 µM

**Q.** With `O=C(NCCc1ccccc1)c1ccc2nc(-c3ccco3)c(-c3ccco3)nc2c1` as the molecule, how does the IC50 read?
**A.** 33.1 µM

**Q.** For `Cc1ccc2c(c1)C1C=CCC1C(C(=O)O)N2` (configuration not stated), which IC50 is on record?
**A.** 3.75 µM

**Q.** `O=C(O)c1cccc2cccc(-c3c4ccc(=O)c(O)c-4oc4c(O)c(O)ccc34)c12` was tested. Which IC50 did it give?
**A.** 3.38 µM

**Q.** With `O=C(O)COc1ccc2c(c1)O/C(=C\c1ccco1)C2=O` as the molecule, how does the IC50 read?
**A.** 53.1 µM

**Q.** How did the IC50 turn out when `O=C(c1ccc2nc(-c3ccco3)c(-c3ccco3)nc2c1)N1CCC2(CC1)OCCO2` was run?
**A.** 4.26 µM

**Q.** How did the IC50 turn out when `COc1ccc2nc(-c3ccco3)c(-c3ccco3)nc2c1` was run?
**A.** 3.13 µM

**Q.** Which IC50 does the source give for `Cc1ccc(C2SCC(=O)N2Cc2cn3ccsc3n2)o1` (configuration not stated) here?
**A.** 68.5 µM

**Q.** How did the IC50 turn out when `CCOC(=O)N1CC=C2C(C#N)=C(N)C(C#N)(C#N)[C@H](c3cccs3)[C@H]2C1` was run?
**A.** 15.3 µM

**Q.** For `Cn1cnnc1SCC(=O)Nc1ncc([N+](=O)[O-])s1`, which IC50 is on record?
**A.** 58.2 µM

**Q.** Which IC50 does the source give for `Cc1cccc2cc(-c3ccccc3)c(-c3ccccc3)c[n+]12` here?
**A.** 15 µM

**Q.** How did the IC50 turn out when `CCC(=O)NNc1ncnc2ccccc12` was run?
**A.** 44.5 µM

**Q.** `CC(=O)Nc1cccc(Oc2ncnc3scc(-c4ccccc4)c23)c1` was tested. Which IC50 did it give?
**A.** 31 µM

**Q.** With `CCN1CCN(c2cc(N3CCN(C(=O)c4ccco4)CC3)c3c4c(onc24)-c2ccccc2C3=O)CC1` as the molecule, how does the IC50 read?
**A.** 5.77 µM

**Q.** With `Cc1ccc(C)n1-c1ccc(C(=O)O)cc1` as the molecule, how does the IC50 read?
**A.** 9.09 µM

**Q.** Which IC50 does the source give for `CCOc1ccc(N(CC(=O)NC(C)(C)C)S(=O)(=O)c2c(C)noc2C)cc1` here?
**A.** 5.37 µM

**Q.** `COc1ccc(O)c(C(=O)C2c3ccccc3C(=O)N2c2ccc(C)cc2)c1` (configuration not stated) was tested. Which IC50 did it give?
**A.** 0.303 µM

**Q.** `O=C(O)c1ccc(-n2cccc2/C=C2/NC(=O)N(c3cccc(Cl)c3)C2=O)cc1` was tested. Which IC50 did it give?
**A.** 7.85 µM

**Q.** Which IC50 does the source give for `C=CCn1c(C)cc(-c2csc(N)n2)c1C` here?
**A.** 5.49 µM

**Q.** `CN(C)c1ccc(N2C(=O)CC(Nc3ccc(N4CCOCC4)cc3)C2=O)cc1` (configuration not stated) was tested. Which IC50 did it give?
**A.** 9.99 µM

**Q.** For `O=C1/C(=C/C=C/c2ccco2)SC(=S)N1NS(=O)(=O)c1ccccc1`, which IC50 is on record?
**A.** 2.48 µM

**Q.** `C=C(C)C(=O)Nc1cccc(C2=NOC3(C2)C[C@@H](C(N)=O)N(C(=O)c2cc([N+](=O)[O-])cc([N+](=O)[O-])c2)C3)c1` (some centres not stated) was tested. Which IC50 did it give?
**A.** 52.9 µM

**Q.** How did the IC50 turn out when `Cc1sc2ncnc(SCc3ccco3)c2c1C` was run?
**A.** 17.6 µM

**Q.** Which IC50 does the source give for `Cc1onc(-c2c(F)cccc2Cl)c1C(=O)Nc1nnc(C2CC2)s1` here?
**A.** 60.7 µM

**Q.** How did the IC50 turn out when `O=C1NC(=O)N(c2ccc(Cl)cc2)C(=O)/C1=C\c1ccc(Sc2nc3ccccc3[nH]2)o1` was run?
**A.** 3.41 µM

**Q.** How did the IC50 turn out when `Nc1ccc2c(O)cc(S(=O)(=O)O)cc2c1` was run?
**A.** 48 µM

**Q.** For `Cc1cccc(C)c1NC(=O)CSc1nnc(-c2ccco2)c(-c2ccco2)n1`, which IC50 is on record?
**A.** 6.43 µM

**Q.** `CCCCn1c(O)c(C(CC)=NCCN2CCCCC2)c(=O)[nH]c1=O` was tested. Which IC50 did it give?
**A.** 32.5 µM

**Q.** How did the IC50 turn out when `O=C1NN(c2ccc(Cl)cc2)C(=O)/C1=C\c1ccc(-c2cccc(C(=O)O)c2)o1` was run?
**A.** 23.4 µM

**Q.** Which IC50 does the source give for `Cn1cccc1/C=C1\CCC/C(=C\c2cccn2C)C1=O` here?
**A.** 17 µM

**Q.** Which IC50 does the source give for `CCOC(=O)CNc1ccc2c(c1)OCO2` here?
**A.** 1.47 µM

**Q.** `O=C1NC(=S)S/C1=C\c1ccc(SCc2ccco2)o1` was tested. Which IC50 did it give?
**A.** 0.926 µM

**Q.** With `O=C(Nc1ccccc1F)c1coc(=O)c(Br)c1` as the molecule, how does the IC50 read?
**A.** 15 µM

**Q.** With `Cc1nc2ncccn2c1-c1csc(NCc2ccco2)n1` as the molecule, how does the IC50 read?
**A.** 6.08 µM

**Q.** For `CCCCC1=CC2=C(c3ccco3)C(=O)C(C)(OC(=O)c3ccc(OC)cc3)C(=O)C2=CN1CCCCO` (configuration not stated), which IC50 is on record?
**A.** 29.3 µM

**Q.** Which IC50 does the source give for `CCN1CCc2c(C#N)c(NCc3ccccc3)nc(N(CC)CC)c2C1` here?
**A.** 59.4 µM

**Q.** How did the IC50 turn out when `COCc1cc(C)nc(NCCO)c1C#N` was run?
**A.** 1.44 µM

**Q.** Which IC50 does the source give for `CCOC(=O)c1c(N)sc(=S)c2c1CCC2` here?
**A.** 52 µM

**Q.** Which IC50 does the source give for `O=c1nc2s/c(=C\c3ccco3)c(=O)n2nc1Cc1ccccc1` here?
**A.** 5.21 µM

**Q.** Which IC50 does the source give for `O=c1cc(-c2ccccc2Cl)c2c([nH]1)CCC2` here?
**A.** 18.8 µM
